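GI50 is the concentration that inhibits growth by half. The concentration for full growth arrest is given as TGI.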
How the values were obtained:
Assay in all cases: NCI anticancer screen, dose series, 384-well format
786-0 renal = tested on: 786-0 renal
RPMI-8226 leukemia = tested on: RPMI-8226 leukemia
SF-295 CNS = tested on: SF-295 CNS
CCRF-CEM leukemia = tested on: CCRF-CEM leukemia
HCC-2998 colon = tested on: HCC-2998 colon
IGROV1 ovarian = tested on: IGROV1 ovarian
UACC-62 melanoma = tested on: UACC-62 melanoma
HOP-62 NSCLC = tested on: HOP-62 NSCLC
NCI/ADR-RES ovarian = tested on: NCI/ADR-RES ovarian
SF-539 CNS = tested on: SF-539 CNS
HL-60(TB) leukemia = tested on: HL-60(TB) leukemia
NCI-H23 lung = tested on: NCI-H23 lung
BT-549 breast = tested on: BT-549 breast
KM12 colon = tested on: KM12 colon
K-562 leukemia = tested on: K-562 leukemia
HCT-15 colon = tested on: HCT-15 colon
UACC-257 melanoma = tested on: UACC-257 melanoma
MOLT-4 leukemia = tested on: MOLT-4 leukemia
LOX IMVI melanoma = tested on: LOX IMVI melanoma
SN12C renal = tested on: SN12C renal
MDA-MB-468 breast = tested on: MDA-MB-468 breast
A549 NSCLC = tested on: A549 NSCLC
EKVX NSCLC = tested on: EKVX NSCLC
U251 glioblastoma = tested on: U251 glioblastoma
MDA-MB-435 melanoma = tested on: MDA-MB-435 melanoma
UO-31 renal = tested on: UO-31 renal
COLO 205 colon = tested on: COLO 205 colon
MALME-3M melanoma = tested on: MALME-3M melanoma
OVCAR-4 ovarian = tested on: OVCAR-4 ovarian
NCI-H522 lung = tested on: NCI-H522 lung
T-47D breast = tested on: T-47D breast
NCI-H322M lung = tested on: NCI-H322M lung
NCI-H226 lung = tested on: NCI-H226 lung
ACHN renal = tested on: ACHN renal
MCF7 breast = tested on: MCF7 breast
SNB-19 CNS = tested on: SNB-19 CNS
OVCAR-8 ovarian = tested on: OVCAR-8 ovarian
SW-620 colon = tested on: SW-620 colon
OVCAR-5 ovarian = tested on: OVCAR-5 ovarian
SK-MEL-28 melanoma = tested on: SK-MEL-28 melanoma
A498 renal = tested on: A498 renal
SK-OV-3 ovarian = tested on: SK-OV-3 ovarian
TK-10 renal = tested on: TK-10 renal
HT29 colon = tested on: HT29 colon
MDA-MB-231 breast = tested on: MDA-MB-231 breast
CAKI-1 renal = tested on: CAKI-1 renal
DU-145 prostate = tested on: DU-145 prostate
RXF 393 renal = tested on: RXF 393 renal
PC-3 prostate = tested on: PC-3 prostate
OVCAR-3 ovarian = tested on: OVCAR-3 ovarian
M14 melanoma = tested on: M14 melanoma
NCI-H460 NSCLC = tested on: NCI-H460 NSCLC
SF-268 CNS = tested on: SF-268 CNS
HCT-116 colon = tested on: HCT-116 colon
SK-MEL-5 melanoma = tested on: SK-MEL-5 melanoma
HS 578T breast = tested on: HS 578T breast
SNB-75 CNS = tested on: SNB-75 CNS
HOP-92 NSCLC = tested on: HOP-92 NSCLC

SMILES: O=C(Oc1ccc([N+](=O)[O-])cc1)N1CCC(C(O)(c2ccc3c(c2)OCO3)c2ccc3c(c2)OCO3)CC1
- GI50 ([…]-0 renal): > 100 µM
- TGI (786-0 renal): > 100 µM
- GI50 (RPMI-8226 leukemia): > 100 µM
- TGI (RPMI-8226 leukemia): > 100 µM
- GI50 (SF-295 CNS): > 100 µM
- TGI (SF-295 CNS): > 100 µM
- GI50 (CCRF-CEM leukemia): > 100 µM
- TGI (CCRF-CEM leukemia): > 100 µM
- GI50 (HCC-2998 colon): 18.2 µM
- TGI (HCC-2998 colon): > 100 µM
- GI50 (IGROV1 ovarian): > 100 µM
- TGI (IGROV1 ovarian): > 100 µM
- GI50 (UACC-62 melanoma): > 100 µM
- TGI (UACC-62 melanoma): > 100 µM
- GI50 (HOP-62 NSCLC): > 100 µM
- TGI (HOP-62 NSCLC): > 100 µM
- GI50 (NCI/ADR-RES ovarian): > 100 µM
- TGI (NCI/ADR-RES ovarian): > 100 µM
- GI50 (SF-539 CNS): > 100 µM
- TGI (SF-539 CNS): > 100 µM
- GI50 (HL-60(TB) leukemia): > 100 µM
- TGI (HL-60(TB) leukemia): > 100 µM
- GI50 (NCI-H23 lung): > 100 µM
- TGI (NCI-H23 lung): > 100 µM
- GI50 (BT-549 breast): 53.1 µM
- TGI (BT-549 breast): > 100 µM
- GI50 (KM12 colon): > 100 µM
- TGI (KM12 colon): > 100 µM
- GI50 (K-562 leukemia): > 100 µM
- TGI (K-562 leukemia): > 100 µM
- GI50 (HCT-15 colon): > 100 µM
- TGI (HCT-15 colon): > 100 µM
- GI50 (UACC-257 melanoma): > 100 µM
- TGI (UACC-257 melanoma): > 100 µM
- GI50 (MOLT-4 leukemia): > 100 µM
- TGI (MOLT-4 leukemia): > 100 µM
- GI50 (LOX IMVI melanoma): > 100 µM
- TGI (LOX IMVI melanoma): > 100 µM
- GI50 (SN12C renal): > 100 µM
- TGI (SN12C renal): > 100 µM
- GI50 (MDA-MB-468 breast): 32.6 µM
- TGI (MDA-MB-468 breast): > 100 µM
- GI50 (A549 NSCLC): > 100 µM
- TGI (A549 NSCLC): > 100 µM
- GI50 (EKVX NSCLC): > 100 µM
- TGI (EKVX NSCLC): > 100 µM
- GI50 (U251 glioblastoma): > 100 µM
- TGI (U251 glioblastoma): > 100 µM
- GI50 (MDA-MB-435 melanoma): > 100 µM
- TGI (MDA-MB-435 melanoma): > 100 µM
- GI50 (UO-31 renal): > 100 µM
- TGI (UO-31 renal): > 100 µM
- GI50 (COLO 205 colon): > 100 µM
- TGI (COLO 205 colon): > 100 µM
- GI50 (MALME-3M melanoma): > 100 µM
- TGI (MALME-3M melanoma): > 100 µM
- GI50 (OVCAR-4 ovarian): > 100 µM
- TGI (OVCAR-4 ovarian): > 100 µM
- GI50 (NCI-H522 lung): > 100 µM
- TGI (NCI-H522 lung): > 100 µM
- GI50 (T-47D breast): 2.93 µM
- TGI (T-47D breast): > 100 µM
- GI50 (NCI-H322M lung): > 100 µM
- TGI (NCI-H322M lung): > 100 µM
- GI50 (NCI-H226 lung): > 100 µM
- TGI (NCI-H226 lung): > 100 µM
- GI50 (ACHN renal): > 100 µM
- TGI (ACHN renal): > 100 µM
- GI50 (MCF7 breast): > 100 µM
- TGI (MCF7 breast): > 100 µM
- GI50 (SNB-19 CNS): > 100 µM
- TGI (SNB-19 CNS): > 100 µM
- GI50 (OVCAR-8 ovarian): > 100 µM
- TGI (OVCAR-8 ovarian): > 100 µM
- GI50 (SW-620 colon): > 100 µM
- TGI (SW-620 colon): > 100 µM
- GI50 (OVCAR-5 ovarian): > 100 µM
- TGI (OVCAR-5 ovarian): > 100 µM
- GI50 (SK-MEL-28 melanoma): > 100 µM
- TGI (SK-MEL-28 melanoma): > 100 µM
- GI50 (A498 renal): > 100 µM
- TGI (A498 renal): > 100 µM
- GI50 (SK-OV-3 ovarian): > 100 µM
- TGI (SK-OV-3 ovarian): > 100 µM
- GI50 (TK-10 renal): > 100 µM
- TGI (TK-10 renal): > 100 µM
- GI50 (HT29 colon): > 100 µM
- TGI (HT29 colon): > 100 µM
- GI50 (MDA-MB-231 breast): > 100 µM
- TGI (MDA-MB-231 breast): > 100 µM
- GI50 (CAKI-1 renal): > 100 µM
- TGI (CAKI-1 renal): > 100 µM
- GI50 (DU-145 prostate): > 100 µM
- TGI (DU-145 prostate): > 100 µM
- GI50 (RXF 393 renal): 98.7 µM
- TGI (RXF 393 renal): > 100 µM
- GI50 (PC-3 prostate): > 100 µM
- TGI (PC-3 prostate): > 100 µM
- GI50 (OVCAR-3 ovarian): > 100 µM
- TGI (OVCAR-3 ovarian): > 100 µM
- GI50 (M14 melanoma): > 100 µM
- TGI (M14 melanoma): > 100 µM
- GI50 (NCI-H460 NSCLC): > 100 µM
- TGI (NCI-H460 NSCLC): > 100 µM
- GI50 (SF-268 CNS): 11.1 µM
- TGI (SF-268 CNS): > 100 µM
- GI50 (HCT-116 colon): > 100 µM
- TGI (HCT-116 colon): > 100 µM
- GI50 (SK-MEL-5 melanoma): > 100 µM
- TGI (SK-MEL-5 melanoma): > 100 µM
- GI50 (HS 578T breast): 24.5 µM
- TGI (HS 578T breast): > 100 µM
- GI50 (SNB-75 CNS): 24.6 µM
- TGI (SNB-75 CNS): > 100 µM
- GI50 (HOP-92 NSCLC): 44.5 µM
- TGI (HOP-92 NSCLC): > 100 µM

— PubChem BioAssay (NCI)
